Assay results reported in patent US20070060558A1 (PALUMED S.A., priority 2004, published 2007).
≈ marks a conversion by molar mass, not a printed value. Structures can show the parent of a compound that is named as a salt. Where two headings read alike, the source gives them in different places.

Legend:
P. aeruginosa CIP 103467 = assay: Antibacterial activity (MIC); type: cell-based; settings: Pseudomonas aeruginosa, CIP103467
S. aureus NorA 1199B = assay: Antibacterial activity (MIC); type: cell-based, Staphylococcus aureus
B. subtilis CIP 5262 = assay: Antibacterial activity (MIC); type: cell-based; settings: Bacillus subtilis, CIP5262
[1] = test system: E. faecalis VRE CIP 104676; assay: Antibacterial activity (MIC/MBC); type: cell-based, Enterococcus faecalis; settings: Enterococcus faecalis
S. pneumoniae PRSP = assay: Antibacterial activity (MIC), Table VII; type: cell-based; settings: Streptococcus pneumoniae
H. influenzae CIP 102514 = assay: Antibacterial activity (MIC/MBC); type: cell-based, Haemophilus influenzae; settings: Haemophilus influenzae, CIP102514
E. coli CIP 54127 = assay: Antibacterial activity (MIC); type: cell-based; settings: Escherichia coli, CIP54127
[2] = test system: Staphylococcus aureus MSSA CIP 4.83; assay: Antibacterial activity (MIC/MBC); type: cell-based; settings: Staphylococcus aureus
[3] = test system: B. thuringiensis CIP 104676; assay: Antibacterial activity (MIC); type: cell-based; settings: Bacillus thuringiensis, CIP104676
C. difficile CIP 104282 = assay: Antibacterial activity (MIC); type: cell-based, Clostridium difficile; settings: Clostridioides difficile, CIP104282; C. difficile CIP 104282; read-out: MIC
[4] = test system: S. aureus MRSA clinical isolate; assay: Antibacterial activity (MIC); type: cell-based, Staphylococcus aureus; settings: Staphylococcus aureus; S. aureus MRSA clinical isolate; read-out: MIC
S. pyogenes CIP 56.41T = assay: Antibacterial activity (MIC/MBC); type: cell-based, Streptococcus pyogenes; settings: Streptococcus pyogenes, CIP56; S. pyogenes CIP 56.41T; read-out: MIC
[5] = test system: E. faecalis VRE VanB CIP106998; assay: Antibacterial activity (MIC); type: cell-based; settings: Enterococcus faecalis; E. faecalis VRE VanB CIP106998; read-out: MIC
[6] = test system: Staphylococcus aureus MSSA 53.154; assay: Murine experimental septicaemia, in vivo efficacy; set-up: species or system mice; settings: sc, mice, subcutaneously at 1 and 6 h post infection, survival on day 9, hybrid molecules formulated in water as their bis(hydrochloride) salt, read-out: ED50
Description: Experimental septicaemia was induced in mice as follows. Briefly, male Swiss OF1 mice (IFFA CREDO-Charles River) weighing 18 to 20 grams were infected intraperitoneally with 0.5 mL of a bacterial suspension containing 8.5×10^7 cfu of Staphylococcus aureus MSSA 53.154 (Institut Pasteur). The hybrid molecules were administered subcutaneously at 1 and 6 h post infection. Control and treatment groups at each dose were composed of seven mice. All the infected but untreated control mice died within 9 days. The 50% effective dose (ED50) values were calculated by a computerized program (GraphPad) from the survival rates on day 9 after infection.

[7] = test system: E. faecium VRE VanA CIP107387; assay: Antibacterial activity (MIC); type: cell-based; settings: Enterococcus faecium; E. faecium VRE VanA CIP107387; read-out: MIC
[8] = test system: S. aureus VISA CIP 106757; assay: Antibacterial activity (MIC); type: cell-based; settings: Staphylococcus aureus; S. aureus VISA CIP 106757; read-out: MIC
[9] = test system: S. pneumoniae PSSP CQI 201; assay: Antibacterial activity (MIC); type: cell-based, Streptococcus pneumoniae; settings: Streptococcus pneumoniae; S. pneumoniae PSSP CQI 201; read-out: MIC
[10] = test system: E. faecalis VRE VanA CIP106996; assay: Antibacterial activity (MIC); type: cell-based; settings: Enterococcus faecalis; E. faecalis VRE VanA CIP106996; read-out: MIC
[11] = test system: Human lung fibroblast cells (ATCC CCL-171); assay: Cytotoxicity (MTT) assay; settings: human, 18 hr
Description: Cellular toxicity was measured by a colorimetric assay that makes use of the tetrazolium salt, MTT. Human lung fibroblast cells (ATCC CCL-171) were plated in 96-well plates at 10^4 cells per well and incubated under 5% CO2 at 37° C. for 24 hr to allow adherence of cells to the plate. Test compounds were prepared as a stock solution at 1 mg/mL in 1% DMSO/water and diluted with water for the serial dilutions (500-7.8 μg/mL). Cells underwent a 18 hr treatment under 5% CO2 at 37° C. with experimental drugs. Corresponding controls received either no drug treatment or treatment with SDS (sodium dodecyl sulfate). The optical density of each sample was read on a microplate spectrophotometer reader at 600 nm and cell survival was expressed as a fraction of that of untreated controls. A drug is said cytotoxic when this fraction is ≦−30%

[12] = test system: S. epidermidis MSCNS (D10); assay: Antibacterial activity (MIC); type: cell-based; settings: Staphylococcus epidermidis; S. epidermidis MSCNS (D10); read-out: MIC
[13] = test system: S. pneumoniae PRSP (CQR 162); assay: Antibacterial activity (MIC); type: cell-based; settings: Streptococcus pneumoniae; S. pneumoniae PRSP (CQR 162); read-out: MIC
S. aureus MsrA PUL 5054 = assay: Antibacterial activity (MIC); type: cell-based; settings: Staphylococcus aureus
[14] = test system: S. epidermidis MRCNS (E93); assay: Antibacterial activity (MIC); type: cell-based; settings: Staphylococcus epidermidis; S. epidermidis MRCNS (E93); read-out: MIC
B. fragilis API 7716 = assay: Antibacterial activity (MIC); type: cell-based; settings: Bacteroides fragilis, API7716
[15] = P. aeruginosa CIP 103467, read-out: MIC
[16] = Staphylococcus aureus, NORA1199B
[17] = B. subtilis CIP 5262, read-out: MIC
[18] = E. faecalis VRE CIP 104676, read-out: MIC
[19] = S. pneumoniae PRSP (Table VII), read-out: MIC
[20] = H. influenzae CIP 102514, read-out: MIC
[21] = E. coli CIP 54127, read-out: MIC
[22] = S. aureus MSSA CIP 4.83, read-out: MIC
[23] = B. thuringiensis CIP 104676, read-out: MIC

**Q.** Which MIC (P. aeruginosa CIP 103467; [15]) does the source give for `Cl.O=C(O)c1cn(C2CC2)c2cc(N3CCN(CCNc4ccnc5cc(Cl)ccc45)CC3)c(F)cc2c1=O` [PA 1127, 7-{4-[2-(7-Chloroquinolin-4-ylamino)-ethyl]-piperazin-1-yl}-1-cyclopropyl-6-fluoro-4-oxo-1,4-dihydroquinoline-3-carboxylic acid hydrochloride] here?
**A.** 5 µg/mL

**Q.** And the MIC (S. aureus NorA 1199B; [16])?
**A.** 3 µg/mL

**Q.** What about the MIC (B. subtilis CIP 5262; [17]) of the same compound?
**A.** 0.312 µg/mL

**Q.** And the MIC [1, 18]?
**A.** 1.25 µg/mL

**Q.** What about the MIC (S. pneumoniae PRSP; [19]) of the same compound?
**A.** 2.5 µg/mL

**Q.** And the MIC (H. influenzae CIP 102514; [20])?
**A.** 0.156 µg/mL

**Q.** What about the MIC (E. coli CIP 54127; [21]) of the same compound?
**A.** 0.156 µg/mL

**Q.** What about the MIC [2, 22] of the same compound?
**A.** 1.25 µg/mL

**Q.** What about the MIC [3, 23] of the same compound?
**A.** 0.625 µg/mL

**Q.** How did the MIC (C. difficile CIP 104282) turn out when `CN[C@H](CC(C)C)C(=O)N[C@H]1C(=O)N[C@@H](CC(N)=O)C(=O)N[C@H]2C(=O)N[C@H]3C(=O)N[C@H](C(=O)N[C@H](C(=O)O)c4cc(O)cc(O)c4-c4cc3ccc4O)[C@H](O)c3ccc(c(Cl)c3)Oc3cc2cc(c3OC2OC(CO)C(O)C(O)C2OC2CC(C)(NCc3ccc(OCCNc4ccnc5cc(Cl)ccc45)cc3)C(O)C(C)O2)Oc2ccc(cc2Cl)[C@H]1O` (stereo partly drawn) [PA 1157, N-4-{4-[2-(7-Chloroquinolin-4-ylamino)ethoxy]-benzyl}-vancomycin] was run?
**A.** 0.078 µg/mL (≈ 0.0443 µM)

**Q.** What about the MIC [4] of the same compound?
**A.** 0.2 µg/mL (≈ 0.114 µM)

**Q.** And the MIC (S. pyogenes CIP 56.41T)?
**A.** 0.125 µg/mL (≈ 0.071 µM)

**Q.** And the MIC [5]?
**A.** 6.25 µg/mL (≈ 3.55 µM)

**Q.** And the ED50 [6]?
**A.** 0.09 mg/kg

**Q.** What about the MIC [7] of the same compound?
**A.** 6.25 µg/mL (≈ 3.55 µM)

**Q.** What about the MIC [8] of the same compound?
**A.** 0.1 µg/mL (≈ 0.0568 µM)

**Q.** And the MIC [9]?
**A.** 0.003 µg/mL (≈ 0.0017 µM)

**Q.** And the MIC [10]?
**A.** 3.12 µg/mL (≈ 1.78 µM)

**Q.** What about the “% of survival cells compared to the untreated controls” value (from here on “% of survival cells”) ([11]; 7.8 μg/mL) of the same compound?
**A.** −22.0%

**Q.** What about the “% of survival cells” value ([11]; 15.6 μg/mL) of the same compound?
**A.** −22.5%

**Q.** And the “% of survival cells” value ([11]; 31.2 μg/mL)?
**A.** −24.2%

**Q.** What about the “% of survival cells” value ([11]; 62.5 μg/mL) of the same compound?
**A.** −24.9%

**Q.** What about the “% of survival cells” value ([11]; 125 μg/mL) of the same compound?
**A.** −26.9%

**Q.** What about the “% of survival cells” value ([11]; 250 μg/mL) of the same compound?
**A.** −26.2%

**Q.** What about the “% of survival cells” value ([11]; 500 μg/mL) of the same compound?
**A.** −29.2%

**Q.** What about the MIC [12] of the same compound?
**A.** 0.05 µg/mL (≈ 0.0284 µM)

**Q.** And the MIC [13]?
**A.** 0.003 µg/mL (≈ 0.0017 µM)

**Q.** And the MIC (S. aureus MsrA PUL 5054)?
**A.** < 0.045 µg/mL

**Q.** And the MIC [2, 22]?
**A.** 0.012 µg/mL (≈ 0.00682 µM)

**Q.** What about the MIC [14] of the same compound?
**A.** 0.003 µg/mL (≈ 0.0017 µM)

**Q.** Which MIC (P. aeruginosa CIP 103467; [15]) does the source give for `O=C(O)c1cn(C2CC2)c2cc(N3CCNCC3)c(F)cc2c1=O` [Ciprofloxacin, reference compound] here?
**A.** 0.156 µg/mL (≈ 0.471 µM)

**Q.** And the MIC (S. aureus NorA 1199B; S. aureus NorA 1199B (quinolone-resistant by efflux))?
**A.** >50 µg/mL

**Q.** And the MIC (S. aureus NorA 1199B; [16])?
**A.** > 50 µg/mL

**Q.** What about the MIC (B. subtilis CIP 5262; [17]) of the same compound?
**A.** 0.04 µg/mL (≈ 0.121 µM)

**Q.** What about the MIC [1, 18] of the same compound?
**A.** 1.25 µg/mL (≈ 3.77 µM)

**Q.** And the MIC (S. pneumoniae PRSP; [19])?
**A.** 1.25 µg/mL (≈ 3.77 µM)

**Q.** And the MIC (H. influenzae CIP 102514; [20])?
**A.** 0.1 µg/mL (≈ 0.302 µM)

**Q.** What about the MIC (E. coli CIP 54127; [21]) of the same compound?
**A.** 0.01 µg/mL (≈ 0.0302 µM)

**Q.** And the MIC [2, 22]?
**A.** 0.312 µg/mL (≈ 0.942 µM)

**Q.** And the MIC [3, 23]?
**A.** 0.156 µg/mL (≈ 0.471 µM)

**Q.** Which MIC (B. fragilis API 7716) does the source give for `Cc1ncc([N+](=O)[O-])n1CCNc1ccnc2cc(C(F)(F)F)ccc12` [PA 1130, [2-(2-Methyl-5-nitroimidazol-1-yl)-ethyl]-(7-trifluoromethylquinolinyl-4-yl)-amine] here?
**A.** 3.12 µg/mL (≈ 8.54 µM)

**Q.** For `O=C(O)c1cn(C2CC2)c2cc(N3CCN(c4ccnc5cc(Cl)ccc45)CC3)c(F)cc2c1=O` [hydrochloride], which MIC (P. aeruginosa CIP 103467) is on record?
**A.** 5 µg/mL

**Q.** What about the “fold more active than the sub-structure from which it comes” value (S. aureus NorA 1199B; S. aureus NorA, versus ciprofloxacin) of the same compound?
**A.** 280

**Q.** What about the MIC (S. aureus NorA 1199B; [16]) of the same compound?
**A.** 0.18 µg/mL

**Q.** And the MIC (B. subtilis CIP 5262)?
**A.** < 0.001 µg/mL

**Q.** And the MIC [1]?
**A.** 0.078 µg/mL

**Q.** And the MIC (S. pneumoniae PRSP; PRSP)?
**A.** 0.078 µg/mL

**Q.** What about the MIC (H. influenzae CIP 102514) of the same compound?
**A.** 0.312 µg/mL

**Q.** And the MIC (E. coli CIP 54127)?
**A.** 0.612 µg/mL

**Q.** And the MIC [2]?
**A.** 0.156 µg/mL

**Q.** What about the MIC [3] of the same compound?
**A.** 0.156 µg/mL
